Laboratory results reported in US20070049564A1 (Wyeth, priority 2005, published 2007).
Like-named read-outs stand apart in the source and are kept apart here.

Assays:
E. coli GC 2231 = assay: MIC, broth microdilution; details: Escherichia coli
E. coli GC 2235 = assay: MIC, broth microdilution; details: Escherichia coli
E. coli GC 2233 = assay: MIC, broth microdilution; details: Escherichia coli
E. coli GC 2270 = assay: MIC, broth microdilution; details: Escherichia coli
E. coli GC 4560 = assay: MIC, broth microdilution; details: Escherichia coli
Protocol: Antimicrobial susceptibility testing. The in vitro activities of the antibiotics are determined by the broth microdilution method as recommended by the National Committee for Clinical Laboratory Standards (NCCLS) (1). Mueller-Hinton II broth (MHBII)(BBL Cockeysville, Md.) is the medium employed in the testing procedures. Microtiter plates containing serial dilutions of each antimicrobial agent are inoculated with each organism to yield the appropriate density (10^5 CFU/ml) in a 100 μl final volume. The plates are incubated for 18-22 hours at 35° C. in ambient air.
Representative compounds were first incubated in mouse serum for an hour prior to the in vitro testing against a panel of selected gram-positive and gram-negative bacteria strains. All compounds were also pre-incubated in water for an hour prior to testing as control. Representative compounds of Formula I were incubated in human serum prior to MIC determination.

E. coli GC 6465 = assay: MIC, broth microdilution; details: Escherichia coli
E. coli GC 1073 = assay: MIC, broth microdilution; details: Escherichia coli
S. typhimurium GC 2172 = assay: MIC, broth microdilution; details: Salmonella enterica, TYPHIMURIUM
S. aureus GC 6466 = assay: MIC, broth microdilution; details: Staphylococcus aureus
S. aureus GC 6467 = assay: MIC, broth microdilution; details: Staphylococcus aureus
S. aureus GC 1079 = assay: MIC, broth microdilution; details: Staphylococcus aureus
S. aureus GC 4536 = assay: MIC, broth microdilution; details: Staphylococcus aureus
S. aureus GC 2216 = assay: MIC, broth microdilution; details: Staphylococcus aureus
S. aureus GC 6469 = assay: MIC, broth microdilution; details: Staphylococcus aureus
E. faecalis GC 2242 = assay: MIC, broth microdilution; details: Enterococcus faecalis
E. faecium GC 4556 = assay: MIC, broth microdilution; details: Enterococcus faecium
E. faecium GC 2243 = assay: MIC, broth microdilution; details: Enterococcus faecium
c. albicans GC 3066 = assay: MIC, broth microdilution
E. coli = assay: Range of MIC for E. coli strains; details: Escherichia coli
Staph. = assay: Range of MIC for Staph. strains, including MRSA; details: Staphylococcus aureus, MRSA

CCCN(CC(=O)Nc1cc(N(C)C)c2c(c1O)C(=O)C1=C(O)[C@]3(O)C(=O)C(C(N)=O)=C(O)[C@@H](N(C)C)[C@@H]3C[C@@H]1C2)C(=O)OCOC(=O)c1cccs1 [Example 25, ({[(2-{[(5aR,6aS,7S,10aS)-9-(aminocarbonyl)-4,7-bis(dimethylamino)-1,8,10a,11-tetrahydroxy-10,12-dioxo-5,5a,6,6a,7,10,10a,12-octahydrotetracen-2-yl]amino}-2-oxoethyl)(propyl)amino]carbonyl}oxy)methyl thiophene-2-carboxylate]
8 µg/mL: MIC (E. coli GC 6465; GC6465, read-out: MINIMAL INHIBITORY CONCENTRATION MIC, pre-incubated in Mouse Serum) | MIC (S. typhimurium GC 2172; read-out: MINIMAL INHIBITORY CONCENTRATION MIC, pre-incubated in Mouse Serum)
> 64 µg/mL: MIC (E. coli GC 2231; GC2231, read-out: MINIMAL INHIBITORY CONCENTRATION MIC, pre-incubated in Water) | MIC (E. coli GC 2270; GC2270, read-out: MINIMAL INHIBITORY CONCENTRATION MIC, pre-incubated in Water) | MIC (E. coli GC 6465; GC6465, read-out: MINIMAL INHIBITORY CONCENTRATION MIC, pre-incubated in Water) | MIC (E. coli GC 1073; GC1073, read-out: MINIMAL INHIBITORY CONCENTRATION MIC, pre-incubated in Water) | MIC (S. typhimurium GC 2172; read-out: MINIMAL INHIBITORY CONCENTRATION MIC, pre-incubated in Water) | MIC (c. albicans GC 3066; Candida albicans, GC3066, read-out: MINIMAL INHIBITORY CONCENTRATION MIC)
>64 UG/ML: MINIMAL INHIBITORY CONCENTRATION MIC (c. albicans GC 3066; pre-incubated in Water)
1 to 2 µg/mL: MIC (E. coli; 20 h, read-out: Range of MIC, E. coli (Mouse Serum)) | MIC (E. coli; read-out: Range of MIC, E. coli (mouse serum))
0.5 µg/mL: MIC (E. coli GC 4560; GC4560, read-out: MINIMAL INHIBITORY CONCENTRATION MIC, pre-incubated in Mouse Serum) | MIC (S. aureus GC 4536; GC4536, read-out: MINIMAL INHIBITORY CONCENTRATION MIC, pre-incubated in Mouse Serum) | MIC (S. aureus GC 4536; GC4536, read-out: MINIMAL INHIBITORY CONCENTRATION MIC, pre-incubated in Water) | MIC (S. aureus GC 2216; GC2216, read-out: MINIMAL INHIBITORY CONCENTRATION MIC, pre-incubated in Mouse Serum) | MIC (E. faecium GC 2243; GC2243, read-out: MINIMAL INHIBITORY CONCENTRATION MIC, pre-incubated in Mouse Serum)
32 µg/mL: MIC (E. coli GC 2235; GC2235, read-out: MINIMAL INHIBITORY CONCENTRATION MIC, pre-incubated in Water) | MIC (E. coli GC 2233; GC2233, read-out: MINIMAL INHIBITORY CONCENTRATION MIC, pre-incubated in Water)
0.5 to 4 µg/mL: MIC (Staph.; read-out: Range of MIC, Staph (Water)) | MIC (Staph.; read-out: Range of MIC, Staph. (water))
0.25 µg/mL: MIC (S. aureus GC 6466; GC6466, read-out: MINIMAL INHIBITORY CONCENTRATION MIC, pre-incubated in Mouse Serum) | MIC (S. aureus GC 6466; GC6466, read-out: MINIMAL INHIBITORY CONCENTRATION MIC, pre-incubated in Water)
0.25 to 2 µg/mL: MIC (Staph.; read-out: Range of MIC, Staph (Mouse Serum)) | MIC (Staph.; read-out: Range of MIC, Staph. (mouse serum))
4 µg/mL: MIC (S. aureus GC 6469; GC6469, read-out: MINIMAL INHIBITORY CONCENTRATION MIC, pre-incubated in Water) | MIC (E. faecium GC 4556; GC4556, read-out: MINIMAL INHIBITORY CONCENTRATION MIC, pre-incubated in Water)
2 µg/mL: MIC (E. coli GC 2231; GC2231, read-out: MINIMAL INHIBITORY CONCENTRATION MIC, pre-incubated in Mouse Serum) | MIC (E. coli GC 2233; GC2233, read-out: MINIMAL INHIBITORY CONCENTRATION MIC, pre-incubated in Mouse Serum) | MIC (E. coli GC 4560; GC4560, read-out: MINIMAL INHIBITORY CONCENTRATION MIC, pre-incubated in Water) | MIC (E. coli GC 1073; GC1073, read-out: MINIMAL INHIBITORY CONCENTRATION MIC, pre-incubated in Mouse Serum) | MIC (S. aureus GC 6467; GC6467, read-out: MINIMAL INHIBITORY CONCENTRATION MIC, pre-incubated in Mouse Serum) | MIC (S. aureus GC 6467; GC6467, read-out: MINIMAL INHIBITORY CONCENTRATION MIC, pre-incubated in Water) | MIC (S. aureus GC 1079; GC1079, read-out: MINIMAL INHIBITORY CONCENTRATION MIC, pre-incubated in Water) | MIC (S. aureus GC 6469; GC6469, read-out: MINIMAL INHIBITORY CONCENTRATION MIC, pre-incubated in Mouse Serum) | MIC (E. faecalis GC 2242; GC2242, read-out: MINIMAL INHIBITORY CONCENTRATION MIC, pre-incubated in Mouse Serum) | MIC (E. faecalis GC 2242; GC2242, read-out: MINIMAL INHIBITORY CONCENTRATION MIC, pre-incubated in Water)
1 µg/mL: MIC (E. coli GC 2235; GC2235, read-out: MINIMAL INHIBITORY CONCENTRATION MIC, pre-incubated in Mouse Serum) | MIC (E. coli GC 2270; GC2270, read-out: MINIMAL INHIBITORY CONCENTRATION MIC, pre-incubated in Mouse Serum) | MIC (S. aureus GC 1079; GC1079, read-out: MINIMAL INHIBITORY CONCENTRATION MIC, pre-incubated in Mouse Serum) | MIC (S. aureus GC 2216; GC2216, read-out: MINIMAL INHIBITORY CONCENTRATION MIC, pre-incubated in Water) | MIC (E. faecium GC 4556; GC4556, read-out: MINIMAL INHIBITORY CONCENTRATION MIC, pre-incubated in Mouse Serum) | MIC (E. faecium GC 2243; GC2243, read-out: MINIMAL INHIBITORY CONCENTRATION MIC, pre-incubated in Water)
